Earlier results as cited in patent US6656448B1, “Matrix metalloproteinase inhibitors” (Bristol-Myers Squibb Pharma Company, priority 2000, dated 2003).

System: MMP-2 and MMP-9

## O=C(NO)C1(CS(=O)(=O)c2ccc(Oc3ccc(Cl)cc3)cc2)CCOCC1 [Example 13]
  selectivity for MMP-2 and MMP-9: selectivity for MMP-2 and MMP-9
